# In publication PMC9181691, “Characterization of the Biomass Degrading Enzyme GuxA from Acidothermus cellulolyticus” (International Journal of Molecular Sciences, 2022):
# Target: T1, GuxA GH12 domain (Acidothermus cellulolyticus, UniProt A0LSH8)
# T1 construct: gene Acel_0615; GH12 catalytic domain only (between CBM3 and CBM2 of full-length GuxA), codon optimized, C-terminal hexahistidine tag, pET22b(+), E. coli BL21(DE3), 24 kDa
# Assay: X-ray crystallography, crystal soak
# Assay type: binding
# Details: 24 h soak with excess cellobiose powder; crystals from 10% PEG 8K, 0.2 M ZnCl2, 0.1 M Na cacodylate pH 6.5; active site groove
# T1 sequence (A0LSH8 entry or part of it): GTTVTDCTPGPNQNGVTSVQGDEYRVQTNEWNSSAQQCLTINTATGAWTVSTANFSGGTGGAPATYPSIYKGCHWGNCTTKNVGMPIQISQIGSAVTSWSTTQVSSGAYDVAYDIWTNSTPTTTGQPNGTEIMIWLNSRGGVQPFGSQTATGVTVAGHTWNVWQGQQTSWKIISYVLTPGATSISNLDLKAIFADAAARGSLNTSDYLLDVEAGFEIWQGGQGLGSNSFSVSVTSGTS
smiles,measurement,value
OC[C@H]1O[C@@H](O[C@H]2[C@H](O)[C@@H](O)C(O)O[C@@H]2CO)[C@H](O)[C@@H](O)[C@@H]1O (stereo partly shown) [cellobiose],"X-ray crystallography, crystal soak",A cellobiose molecule was found and modeled in the active site groove.
